Measured values reported in patent publication US4328215A, “Method of reducing or avoiding the mutagenic activity of drugs” (The Johns Hopkins University, priority 1977, dated 1982).
Read-outs that look alike come from different tables or passages of the source. Where a SMILES comes first, the peptide text is derived from it. Bridges are numbered along the chain shown (N, C = ends). [ ]: non-standard residue; d: D form. The star is where a group is joined. Ileψ(thiazoline)Cys = CC[C@H](C)[C@H](N)C1=N[C@H](C(=O)*)CS1; dOrn = NCCC[C@@H](N)C(=O)O

How the values were obtained:
intestinal bacteria = test: Effect on intestinal bacterial flora of mice; assay type: in vivo
Protocol: […] Homogenates of these organs were made with 10 ml nutrient broth (Difco) and serial dilutions were plated on nutrient agar plates. Obligatory anaerobic bacteria were counted in the same manner except that the organs were homogenized in thioglycolate (Difco) medium and the agar plates were incubated in anaerobic jars. The plates were counted after incubation for 24 hours at 37° C. There were no significant differences in counts when the incubation time was extended for 48 hours. Six mice were used for each time interval.

[1] = ampicillin administered; cited from earlier work
[2] = mice; oxamniquine alone; cited from earlier work
[3] = Mutagenic metabolite of oxamniquine in urine of mice; assay type: in vivo; conditions: mixture of erythromycin, bacitracin and succinyl sulfathiazole
From the text: Ir also is used, though to a lesser extent, in Africa and the Mid-east for the treatment of schistosomiasis mansoni.

[4] = monkeys; oxamniquine alone; cited from earlier work

SMILES: CC[C@H](C)[C@H](N)C1=N[C@H](C(=O)N[C@@H](CC(C)C)C(=O)N[C@H](CCC(=O)O)C(=O)N[C@H](C(=O)N[C@H]2CCCCNC(=O)[C@H](CC(N)=O)NC(=O)[C@@H](CC(=O)O)NC(=O)[C@H](Cc3cnc[nH]3)NC(=O)[C@@H](Cc3ccccc3)NC(=O)[C@H]([C@@H](C)CC)NC(=O)[C@@H](CCCN)NC2=O)[C@@H](C)CC)CS1 [Bacitracin] ({Ileψ(thiazoline)Cys}-L[dE]IK[dOrn]I[dF]H[dD]N; lactam 4-C)
- Host-mediated assay, revertants per 10^8 bacteria, controls (no CGP 4540) (S. typhimurium TA 100; bacitracin alone, 220 mg/kg, mice): 64(±9) revertants per 10^8 bacteria
- Host-mediated assay, revertants per 10^8 bacteria, controls (no CGP 4540) (S. typhimurium TA 100; bacitracin alone, 440 mg/kg, mice): 71(±5) revertants per 10^8 bacteria

SMILES: CC[C@H]1OC(=O)[C@H](C)[C@@H](O[C@H]2C[C@@](C)(OC)[C@@H](O)[C@H](C)O2)[C@H](C)[C@@H](O[C@@H]2O[C@H](C)C[C@H](N(C)C)[C@H]2O)[C@](C)(O)C[C@@H](C)C(=O)[C@H](C)[C@@H](O)[C@]1(C)O [Erythromycin]
- Host mediated assay, revertants per 10^8 bacteria, controls (no CGP 4540) (S. typhimurium TA 100; antibiotic alone, 100 mg/kg oral, mice): 65 (±4) revertants per 10^8 bacteria
- Number of aerobes in the large intestine (intestinal bacteria; erythromycin base 100 mg/kg single oral dose, large intestine, aerobes): little, if any, change
- Number of anaerobes in the large intestine (intestinal bacteria; erythromycin base 100 mg/kg single oral dose, large intestine, anaerobes): little, if any, change
- Total number of aerobic bacteria in the small intestine (intestinal bacteria; erythromycin base 100 mg/kg single oral dose, small intestine, aerobes): only a moderate reduction, of relatively short duration
- Anaerobic bacteria in the small intestine (intestinal bacteria; erythromycin base 100 mg/kg single oral dose, small intestine, anaerobes): reduced to an even lesser extent than were aerobes

SMILES: O=C(O)CCC(=O)Nc1ccc(S(=O)(=O)Nc2nccs2)cc1 [Succinylsulfathiazole]
- Host-mediated assay, revertants per 10^8 bacteria, controls (no CGP 4540) (S. typhimurium TA 100; in vivo): 62(±5) revertants per 10^8 bacteria
- Bacterial flora of the host's intestines (intestinal bacteria; 1 g/kg once daily for 3 successive days, oral): reduces the bacterial flora

SMILES: C[N+]([O-])=NCO[C@@H]1O[C@H](CO)[C@@H](O)[C@H](O)[C@H]1O [cycasin]
- Formation of the aglycone after administration of ampicillin [1]: prevented

SMILES: CC(C)NCC1CCc2cc(CO)c([N+](=O)[O-])cc2N1 (stereo not shown) [oxamniquine]
- Mutagenic metabolite in urine [2]: gives rise to the appearance of a mutagenic metabolite in the urine
- Appearance of the mutagenic metabolite with coadministered antibacterial agents [3]: completely eliminates the appearance of the mutagenic metabolite
- Mutagenic metabolite in urine [4]: gives rise to the appearance of a mutagenic metabolite in the urine
